This is an account of results in PubChem BioAssay (NCI).

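Following 48 hours of exposure in 96-well plates, responses at five concentrations were used to interpolate endpoints linearly. Abbreviation: GI50, concentration required for 50% inhibition of growth. Definition used: TGI = concentration required for complete inhibition of growth.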

Experiment in all cases: NCI anticancer screen, dose series, 48 h
The test system of assay [1] is HL-60(TB) leukemia.
Assay [2] relates to K-562 leukemia.
In assay [3] the test system is RXF 393 renal.
In assay [4] the test system is OVCAR-8 ovarian.
In assay [5] the test system is COLO 205 colon.
Assay [6] has as its system SK-MEL-28 melanoma.
The subject of assay [7] is CCRF-CEM leukemia.
Assay [8] relates to UACC-257 melanoma.
In assay [9] the test system is U251 CNS.
Assay [10] has as its system HT29 colon.

On to `c1ccc(C2=NN[C@H](c3cn(-c4ccccc4)nc3-c3ccccc3)C2)cc1`, for which the GI50 in assay [1] was above 100 µM; in [2] it was above 100 µM; in assay [3], 2.58 µM; in [4] it was 3.64 µM; in assay [5], 6.55 µM; in assay [6], 4.89 µM. In addition, the GI50 in assay [7] is above 100 µM; in assay [8], above 100 µM; in assay [9] it was 2.91 µM; in assay [10], above 100 µM. The TGI is above 100 µM in [1]; above 100 µM in assay [2]; 9.85 µM in assay [3]; above 100 µM in assay [4]; above 100 µM in assay [5]; above 100 µM in assay [6]. The TGI was above 100 µM in assay [7], above 100 µM in assay [8], 15.6 µM in [9] and above 100 µM in assay [10].
For the compound `C=CCCCCn1c2ccccc2c2c(C)c3c[n+](C)ccc3c(C)c21`, the TGI is 0.921 µM in [1]; 1.29 µM in [2]; 2.11 µM in assay [3]; 1.28 µM in assay [4]; 1.08 µM in assay [5]; 1.41 µM in assay [6]. The TGI in assay [7] was 2.02 µM; in assay [8], 1.47 µM; in [9], 1.14 µM; in assay [10] it was 1.75 µM.
Regarding `Cc1cc(=O)[nH]c(NN2C(Cl)C(=O)C2c2c(O)ccc3ccccc23)n1` (stereo not given), the TGI is 49.3 µM in [1]; above 100 µM in assay [2]; 26.6 µM in assay [3]; above 100 µM in assay [4]; 58.2 µM in assay [5]; 44.1 µM in assay [6]. Further, the TGI is above 100 µM in [7], above 100 µM in assay [8], 63.1 µM in assay [9] and 74 µM in assay [10].
Consider `Clc1ccc2c(Cl)nc(-c3ccccc3)nc2c1`, for which the TGI in assay [1] was 45.8 µM; in [2] it was above 100 µM; in [3] it was 71.2 µM; in assay [4], above 100 µM; in assay [5], above 100 µM; in assay [6], above 100 µM. In addition, the TGI is above 100 µM in [7], above 100 µM in [8], 35.1 µM in [9] and above 100 µM in assay [10].
As to `CCCCCCCSCC1OC(n2cnc3c(N)ncnc32)C(O)C1O` (stereo not given), the TGI is 27.3 µM in assay [1]; above 100 µM in assay [2]; above 100 µM in [3]; 54.1 µM in [4]; 28.3 µM in assay [5]; above 100 µM in assay [6]. Also, the TGI in [7] is above 100 µM; in assay [8], 56.9 µM; in assay [9] it was above 100 µM; in assay [10] it was 4.51 µM.
Consider `Oc1c2c(c3c4c1N=CC=4CCN=3)C1(C=C(Br)C(O)C(Br)=C1)CCN2` (stereo not given), for which the TGI in assay [1] is 2.08 µM; in [2], above 21 µM; in assay [3], 7.57 µM; in assay [4], 2.91 µM; in assay [5] it was 0.418 µM; in assay [6], 21.5 µM. Further, the TGI in [7] worked out at 5.79 µM; in assay [8], 1.27 µM; in assay [9], 5.44 µM; in assay [10], 2.15 µM.
